Assay results taken from the supplement of paper PMC10307832.

Tests used:
Assay in all cases: relative viability (nuclei count vs DMSO), 5 days (fraction); higher = more cells survive
Omipalisib = compound: COc1ncc(-c2ccc3nccc(-c4ccnnc4)c3c2)cc1NS(=O)(=O)c1ccc(F)cc1F [Omipalisib]
Method in brief: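 Lung cancer cell lines were seeded into 1536-well plates, kept overnight at 37 °C and pinned with five library-drug doses (not always all listed) spaced by √10. After 5 days, nuclei were Hoechst-stained, imaged at 4× and counted with MetaXpress. Viability is treated-well nuclei over vehicle-well nuclei, taken as a median across plates. Plates needed control CV below 25% and at least one doubling.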

Omipalisib + Trametinib = compound: COc1ncc(-c2ccc3nccc(-c4ccnnc4)c3c2)cc1NS(=O)(=O)c1ccc(F)cc1F [Omipalisib] + CC(=O)Nc1cccc(-n2c(=O)n(C3CC3)c(=O)c3c(Nc4ccc(I)cc4F)n(C)c(=O)c(C)c32)c1 [Trametinib] (partner 0.02 µM)
Method in brief: (§1)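 Lung cancer cell lines in 1536-well plates got either a single drug or a fixed anchor-drug dose together with five library-drug doses (not always all listed) in √10 steps, by pin tool, on the day after seeding. Nuclei were counted after 5 days, and relative viability is the treated-to-vehicle ratio of nuclei counts. Values are medians of duplicate plates.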

Omipalisib + Palbociclib = compound: COc1ncc(-c2ccc3nccc(-c4ccnnc4)c3c2)cc1NS(=O)(=O)c1ccc(F)cc1F [Omipalisib] + CC(=O)c1c(C)c2cnc(Nc3ccc(N4CCNCC4)cn3)nc2n(C2CCCC2)c1=O [Palbociclib] (partner 0.5 µM)
Method in brief: as §1

Omipalisib + Foretinib = compound: COc1ncc(-c2ccc3nccc(-c4ccnnc4)c3c2)cc1NS(=O)(=O)c1ccc(F)cc1F [Omipalisib] + COc1cc2c(Oc3ccc(NC(=O)C4(C(=O)Nc5ccc(F)cc5)CC4)cc3F)ccnc2cc1OCCCN1CCOCC1 [Foretinib] (partner 0.25 µM)
Method in brief: as §1

Omipalisib + Crizotinib = compound: COc1ncc(-c2ccc3nccc(-c4ccnnc4)c3c2)cc1NS(=O)(=O)c1ccc(F)cc1F [Omipalisib] + C[C@@H](Oc1cc(-c2cnn(C3CCNCC3)c2)cnc1N)c1c(Cl)ccc(F)c1Cl [Crizotinib] (partner 1 µM)
Method in brief: as §1

Omipalisib + Tozasertib = compound: COc1ncc(-c2ccc3nccc(-c4ccnnc4)c3c2)cc1NS(=O)(=O)c1ccc(F)cc1F [Omipalisib] + Cc1cc(Nc2cc(N3CCN(C)CC3)nc(Sc3ccc(NC(=O)C4CC4)cc3)n2)n[nH]1 [Tozasertib] (partner 0.1 µM)
Method in brief: as §1

Row | Cell Line | relative viability (Omipalisib; 0.0003 µM) | relative viability (Omipalisib; 0.003 µM) | relative viability (Omipalisib; 0.03 µM) | relative viability (Omipalisib + Trametinib; first compound 0.0003 µM) | relative viability (Omipalisib + Trametinib; first compound 0.003 µM) | relative viability (Omipalisib + Trametinib; first compound 0.03 µM) | relative viability (Omipalisib + Palbociclib; first compound 0.0003 µM) | relative viability (Omipalisib + Palbociclib; first compound 0.003 µM) | relative viability (Omipalisib + Palbociclib; first compound 0.03 µM) | relative viability (Omipalisib + Foretinib; first compound 0.0003 µM) | relative viability (Omipalisib + Foretinib; first compound 0.003 µM) | relative viability (Omipalisib + Foretinib; first compound 0.03 µM) | relative viability (Omipalisib + Crizotinib; first compound 0.0003 µM) | relative viability (Omipalisib + Crizotinib; first compound 0.003 µM) | relative viability (Omipalisib + Crizotinib; first compound 0.03 µM) | relative viability (Omipalisib + Tozasertib; first compound 0.0003 µM) | relative viability (Omipalisib + Tozasertib; first compound 0.003 µM) | relative viability (Omipalisib + Tozasertib; first compound 0.03 µM)
1 | NCI-H1355 | 0.945 | 0.664 | 0.578 | 0.361 | 0.263 | 0.194 | 0.358 | 0.239 | 0.198 | 0.764 | 0.643 | 0.416 | 0.999 | 0.653 | 0.327 | 0.493 | 0.409 | 0.21
2 | NCI-H2085 | 0.987 | 1.01 | 0.495 | 0.456 | 0.255 | 0.257 | 0.553 | 0.479 | 0.33 | 0.95 | 0.884 | 0.26 | 0.789 | 0.886 | 0.407 | 0.905 | 0.693 | 0.361
3 | SK-MES-1 | 0.927 | 0.607 | 0.452 | 0.512 | 0.419 | 0.285 | 0.273 | 0.271 | 0.261 | 0.73 | 0.461 | 0.344 | 0.954 | 0.656 | 0.611 | 0.901 | 0.875 | 0.53
4 | SW 1573 | 0.731 | 0.713 | 0.492 | 0.441 | 0.373 | 0.226 | 0.335 | 0.325 | 0.191 | 0.693 | 0.595 | 0.401 | 0.812 | 0.628 | 0.379 | 0.171 | 0.146 | 0.109
5 | BEN | 0.789 | 0.577 | 0.712 | 0.828 | 0.671 | 0.602 | 0.434 | 0.444 | 0.452 | 0.518 | 0.403 | 0.538 | 0.635 | 0.531 | 0.464 | 0.43 | 0.426 | 0.457
6 | ChaGo-K-1 | 0.978 | 0.917 | 0.919 | 0.818 | 0.747 | 0.666 | 0.853 | 0.843 | 0.708 | 0.852 | 0.75 | 0.715 | 1.04 | 1.09 | 1.07 | 0.242 | 0.202 | 0.167
7 | EKVX | 0.985 | 0.79 | 0.44 | 0.42 | 0.347 | 0.152 | 0.301 | 0.326 | 0.182 | 0.649 | 0.801 | 0.183 | 0.934 | 0.824 | 0.402 | 0.407 | 0.246 | 0.157
8 | HARA | 0.952 | 0.822 | 0.42 | 0.694 | 0.301 | 0.188 | 0.267 | 0.181 | 0.169 | 0.928 | 0.897 | 0.26 | 1.09 | 1.02 | 0.395 | 0.11 | 0.0779 | 0.0711
